Assay results as given in patent US20260022143A1, “Cyclic Peptide Inhibitors of IL-23” (JANSSEN PHARMACEUTICA NV, priority 2022, published 2026).
Positions of bridges follow the written chain, without caps; N, C: chain ends. Non-standard residues stand in square brackets, D forms with d. Residues, ends and D or L forms follow the SMILES beside them. *: point of attachment. Me3N+(CH2)2O(CH2)2O(CH2)2CO = C[N+](C)(C)CCOCCOCCC(=O)*; Trp(7-Me) = Cc1cccc2c(C[C@H](N)C(=O)O)c[nH]c12; X28 = CCCCCCCCCCCCCCCC[N+](C)(C)CCc1cn(CC*)nn1; X30 = C[N+](C)(C)CCOCCOCCOCCOCc1cn(CC*)nn1; X73 = C[N+](C)(C)CCOCCOCCNC(=O)CCCCCCCC*; X9 = COCCOCCOCC[N+](C)(C)CCc1cn(CC*)nn1; 2Nal = N[C@@H](Cc1ccc2ccccc2c1)C(=O)O; X81 = C[N+](C)(CCCC*)CC[N+]1(C)CCOCC1; X75 = C[N+](C)(C)CCOCC[N+](C)(C)CC*; X77 = COCCN1CC[N+]2(CC1)CCN(CC*)CC2; 3Pal = N[C@@H](Cc1cccnc1)C(=O)O; Lys(Me) = CNCCCC[C@H](N)C(=O)O; Pen = CC(C)(S)[C@H](N)C(=O)O; X66 = C[N+]1(CCC*)CCOCC1; Thp = NC1(C(=O)O)CCOCC1; Sar = CNCC(=O)O

Assay: Exposed Polar Surface Area (EPSA)
Type: physicochemical
Conditions: SFC on Chirex 3014 column; sample 1 mM DMSO stock; read-out: EPSA
How it was run: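 Retention-based polarity: supercritical CO2 with 20 mM ammonium formate in MeOH (5–60%, 20%/min), Chirex 3014 column, 35 °C. Calibrated against 8 standards to give EPSA (Å^2); each sample measured twice.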

EPSA [A^2]	Compound
148	CC(=O)NCCCC[C@@H]1NC(=O)[C@H](Cc2c[nH]c3c(C)cccc23)NC(=O)[C@H]([C@@H](C)O)NC(=O)[C@H](CC(N)=O)NC(=O)[C@@H](NC(C)=O)C(C)(C)SSC(C)(C)[C@@H](C(=O)N[C@@H](Cc2ccc(OCCn3cc(COCCOCCOCCOCC[N+](C)(C)C)nn3)cc2)C(=O)N[C@@H](Cc2ccc3ccccc3c2)C(=O)NC2(C(=O)N[C@@H](CCCCNC(C)=O)C(=O)N[C@@H](CC(N)=O)C(=O)N[C@@H](Cc3cccnc3)C(=O)N(C)CC(N)=O)CCOCC2)NC1=O [compound 252] (Ac-[Pen]NT[Trp(7-Me)]K(Ac)[Pen]Y(X30)[2Nal][Thp]K(Ac)N[3Pal][Sar]-NH2; disulfide 1-6)
144	CC(=O)N(C)CCCC[C@@H]1NC(=O)[C@H](Cc2c[nH]c3c(C)cccc23)NC(=O)[C@H]([C@@H](C)O)NC(=O)[C@H](CC(=O)N(C)C)NC(=O)[C@@H](NC(=O)CCOCCOCC[N+](C)(C)C)C(C)(C)SSC(C)(C)[C@@H](C(=O)N[C@@H](Cc2ccc(OCCCCCCCCC(=O)NCCOCCOCC[N+](C)(C)C)cc2)C(=O)N[C@@H](Cc2ccc3ccccc3c2)C(=O)NC2(C(=O)N[C@@H](CCCCN(C)C(C)=O)C(=O)N[C@@H](CC(N)=O)C(=O)N[C@@H](Cc3cccnc3)C(=O)N(C)CC(=O)N(C)C)CCOCC2)NC1=O [compound 254, cPEG3aCO-Pen(3)-N(N(Me)2)-T-7MeW-K(NMeAc)-Pen(3)-YC8CO(NHPEG3a)-2Nal-THP-K(NMeAc)-N-3Pya-Sar-CON(Me)2] ({Me3N+(CH2)2O(CH2)2O(CH2)2CO}-[Pen]D(NMe2)T[Trp(7-Me)][Lys(Me)](Ac)[Pen]Y(X73)[2Nal][Thp][Lys(Me)](Ac)N[3Pal][Sar]-NMe2; disulfide 1-6)
149	CCCCCCCCCCCCCCCC[N+](C)(C)CCc1cn(CCOc2ccc(C[C@H](NC(=O)[C@H]3NC(=O)[C@H](CCCCNC(C)=O)NC(=O)[C@H](Cc4c[nH]c5c(C)cccc45)NC(=O)[C@H]([C@@H](C)O)NC(=O)[C@H](CC(N)=O)NC(=O)[C@@H](NC(C)=O)C(C)(C)SSC3(C)C)C(=O)N[C@@H](Cc3ccc4ccccc4c3)C(=O)NC3(C(=O)N[C@@H](CCCCNC(C)=O)C(=O)N[C@@H](CC(N)=O)C(=O)N[C@@H](Cc4cccnc4)C(=O)N(C)CC(N)=O)CCOCC3)cc2)nn1 [compound 259] (Ac-[Pen]NT[Trp(7-Me)]K(Ac)[Pen]Y(X28)[2Nal][Thp]K(Ac)N[3Pal][Sar]-NH2; disulfide 1-6)
147	COCCOCCOCC[N+](C)(C)CCc1cn(CCOc2ccc(C[C@H](NC(=O)[C@H]3NC(=O)[C@H](CCCCNC(C)=O)NC(=O)[C@H](Cc4c[nH]c5c(C)cccc45)NC(=O)[C@H]([C@@H](C)O)NC(=O)[C@H](CC(N)=O)NC(=O)[C@@H](NC(C)=O)C(C)(C)SSC3(C)C)C(=O)N[C@@H](Cc3ccc4ccccc4c3)C(=O)NC3(C(=O)N[C@@H](CCCCNC(C)=O)C(=O)N[C@@H](CC(N)=O)C(=O)N[C@@H](Cc4cccnc4)C(=O)N(C)CC(N)=O)CCOCC3)cc2)nn1 [compound 260] (Ac-[Pen]NT[Trp(7-Me)]K(Ac)[Pen]Y(X9)[2Nal][Thp]K(Ac)N[3Pal][Sar]-NH2; disulfide 1-6)
145	COCCN1CC[N+]2(CC1)CCN(CCOc1ccc(C[C@H](NC(=O)[C@H]3NC(=O)[C@H](CCCCN(C)C(C)=O)NC(=O)[C@H](Cc4c[nH]c5c(C)cccc45)NC(=O)[C@H]([C@@H](C)O)NC(=O)[C@H](CC(=O)N(C)C)NC(=O)[C@@H](NC(=O)CCOCCOCC[N+](C)(C)C)C(C)(C)SSC3(C)C)C(=O)N[C@@H](Cc3ccc4ccccc4c3)C(=O)NC3(C(=O)N[C@@H](CCCCN(C)C(C)=O)C(=O)N[C@@H](CC(N)=O)C(=O)N[C@@H](Cc4cccnc4)C(=O)N(C)CC(=O)N(C)C)CCOCC3)cc1)CC2 [compound 262, cPEG3aCO-Pen(3)-N(N(Me)2)-T-7MeW-K(NMeAc)-Pen(3)-MTASF-2Nal-THP-K(NMeAc)-N-3Pya-Sar-CON(Me)2] ({Me3N+(CH2)2O(CH2)2O(CH2)2CO}-[Pen]D(NMe2)T[Trp(7-Me)][Lys(Me)](Ac)[Pen]Y(X77)[2Nal][Thp][Lys(Me)](Ac)N[3Pal][Sar]-NMe2; disulfide 1-6)
151	CC(=O)N(C)CCCC[C@@H]1NC(=O)[C@H](Cc2c[nH]c3c(C)cccc23)NC(=O)[C@H]([C@@H](C)O)NC(=O)[C@H](CC(=O)N(C)C)NC(=O)[C@@H](NC(=O)CCOCCOCC[N+](C)(C)C)C(C)(C)SSC(C)(C)[C@@H](C(=O)N[C@@H](Cc2ccc(OCC[N+](C)(C)CCOCC[N+](C)(C)C)cc2)C(=O)N[C@@H](Cc2ccc3ccccc3c2)C(=O)NC2(C(=O)N[C@@H](CCCCN(C)C(C)=O)C(=O)N[C@@H](CC(N)=O)C(=O)N[C@@H](Cc3cccnc3)C(=O)N(C)CC(=O)N(C)C)CCOCC2)NC1=O [compound 264, cPEG3aCO-Pen(3)-N(N(Me)2)-T-7MeW-K(NMeAc)-Pen(3)-AEF(aPEG2a)-2Nal-THP-K(NMeAc)-N-3Pya-Sar-CON(Me)2] ({Me3N+(CH2)2O(CH2)2O(CH2)2CO}-[Pen]D(NMe2)T[Trp(7-Me)][Lys(Me)](Ac)[Pen]Y(X75)[2Nal][Thp][Lys(Me)](Ac)N[3Pal][Sar]-NMe2; disulfide 1-6)
159	CC(=O)N(C)CCCC[C@@H]1NC(=O)[C@H](Cc2c[nH]c3c(C)cccc23)NC(=O)[C@H]([C@@H](C)O)NC(=O)[C@H](CC(=O)N(C)C)NC(=O)[C@@H](NC(=O)CCOCCOCC[N+](C)(C)C)C(C)(C)SSC(C)(C)[C@@H](C(=O)N[C@@H](Cc2ccc(OCCCC[N+](C)(C)CC[N+]3(C)CCOCC3)cc2)C(=O)N[C@@H](Cc2ccc3ccccc3c2)C(=O)NC2(C(=O)N[C@@H](CCCCN(C)C(C)=O)C(=O)N[C@@H](CC(N)=O)C(=O)N[C@@H](Cc3cccnc3)C(=O)N(C)CC(=O)N(C)C)CCOCC2)NC1=O [compound 271, cPEG3aCO-Pen(3)-N(N(Me)2)-T-7MeW-K(NMeAc)-Pen(3)-morfTMA4F-2Nal-THP-K(NMeAc)-N-3Pya-Sar-CON(Me)2] ({Me3N+(CH2)2O(CH2)2O(CH2)2CO}-[Pen]D(NMe2)T[Trp(7-Me)][Lys(Me)](Ac)[Pen]Y(X81)[2Nal][Thp][Lys(Me)](Ac)N[3Pal][Sar]-NMe2; disulfide 1-6)
153	CC(=O)N(C)CCCC[C@@H]1NC(=O)[C@H](Cc2c[nH]c3c(C)cccc23)NC(=O)[C@H]([C@@H](C)O)NC(=O)[C@H](CC(=O)N(C)C)NC(=O)[C@@H](NC(=O)CCOCCOCC[N+](C)(C)C)C(C)(C)SSC(C)(C)[C@@H](C(=O)N[C@@H](Cc2ccc(OCCC[N+]3(C)CCOCC3)cc2)C(=O)N[C@@H](Cc2ccc3ccccc3c2)C(=O)NC2(C(=O)N[C@@H](CCCCN(C)C(C)=O)C(=O)N[C@@H](CC(N)=O)C(=O)N[C@@H](Cc3cccnc3)C(=O)N(C)CC(=O)N(C)C)CCOCC2)NC1=O [compound 274, cPEG3aCO-Pen(3)-N(N(Me)2)-T-7MeW-K(NMeac)-Pen(3)-MMoPF-2Nal-THP-K(NMeAc)-N-3Pya-Sar-CON(Me)2] ({Me3N+(CH2)2O(CH2)2O(CH2)2CO}-[Pen]D(NMe2)T[Trp(7-Me)][Lys(Me)](Ac)[Pen]Y(X66)[2Nal][Thp][Lys(Me)](Ac)N[3Pal][Sar]-NMe2; disulfide 1-6)
